Measured values from patent US8129417B2, “Substituted octahydrocyclopenta[C]pyrrol-4-amines as calcium channel blockers” (Abbott Laboratories, priority 2008, dated 2012).

The compounds below were run against human Cav2.2 (Homo sapiens, UniProt Q00975) (assay: Assessment of calcium channel activity using FLIPR (Ca2+ influx in IMR32 cells)). Conditions: 60 minute pre-incubation with compound, 2 μM nifedipine, depolarized with 80 mM KCl.
Format: cell-based
Procedure, shortened: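 IC50 came from sigmoidal non-linear regression of percent inhibition, relative to uninhibited activity, across compound concentrations. Calcium influx was measured by FLIPR in IMR32 cells plated at 1-1.2×10^5 cells/well and cultured 48 h at 37 °C.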

human Cav2.2, sequence (Q00975 whole entry): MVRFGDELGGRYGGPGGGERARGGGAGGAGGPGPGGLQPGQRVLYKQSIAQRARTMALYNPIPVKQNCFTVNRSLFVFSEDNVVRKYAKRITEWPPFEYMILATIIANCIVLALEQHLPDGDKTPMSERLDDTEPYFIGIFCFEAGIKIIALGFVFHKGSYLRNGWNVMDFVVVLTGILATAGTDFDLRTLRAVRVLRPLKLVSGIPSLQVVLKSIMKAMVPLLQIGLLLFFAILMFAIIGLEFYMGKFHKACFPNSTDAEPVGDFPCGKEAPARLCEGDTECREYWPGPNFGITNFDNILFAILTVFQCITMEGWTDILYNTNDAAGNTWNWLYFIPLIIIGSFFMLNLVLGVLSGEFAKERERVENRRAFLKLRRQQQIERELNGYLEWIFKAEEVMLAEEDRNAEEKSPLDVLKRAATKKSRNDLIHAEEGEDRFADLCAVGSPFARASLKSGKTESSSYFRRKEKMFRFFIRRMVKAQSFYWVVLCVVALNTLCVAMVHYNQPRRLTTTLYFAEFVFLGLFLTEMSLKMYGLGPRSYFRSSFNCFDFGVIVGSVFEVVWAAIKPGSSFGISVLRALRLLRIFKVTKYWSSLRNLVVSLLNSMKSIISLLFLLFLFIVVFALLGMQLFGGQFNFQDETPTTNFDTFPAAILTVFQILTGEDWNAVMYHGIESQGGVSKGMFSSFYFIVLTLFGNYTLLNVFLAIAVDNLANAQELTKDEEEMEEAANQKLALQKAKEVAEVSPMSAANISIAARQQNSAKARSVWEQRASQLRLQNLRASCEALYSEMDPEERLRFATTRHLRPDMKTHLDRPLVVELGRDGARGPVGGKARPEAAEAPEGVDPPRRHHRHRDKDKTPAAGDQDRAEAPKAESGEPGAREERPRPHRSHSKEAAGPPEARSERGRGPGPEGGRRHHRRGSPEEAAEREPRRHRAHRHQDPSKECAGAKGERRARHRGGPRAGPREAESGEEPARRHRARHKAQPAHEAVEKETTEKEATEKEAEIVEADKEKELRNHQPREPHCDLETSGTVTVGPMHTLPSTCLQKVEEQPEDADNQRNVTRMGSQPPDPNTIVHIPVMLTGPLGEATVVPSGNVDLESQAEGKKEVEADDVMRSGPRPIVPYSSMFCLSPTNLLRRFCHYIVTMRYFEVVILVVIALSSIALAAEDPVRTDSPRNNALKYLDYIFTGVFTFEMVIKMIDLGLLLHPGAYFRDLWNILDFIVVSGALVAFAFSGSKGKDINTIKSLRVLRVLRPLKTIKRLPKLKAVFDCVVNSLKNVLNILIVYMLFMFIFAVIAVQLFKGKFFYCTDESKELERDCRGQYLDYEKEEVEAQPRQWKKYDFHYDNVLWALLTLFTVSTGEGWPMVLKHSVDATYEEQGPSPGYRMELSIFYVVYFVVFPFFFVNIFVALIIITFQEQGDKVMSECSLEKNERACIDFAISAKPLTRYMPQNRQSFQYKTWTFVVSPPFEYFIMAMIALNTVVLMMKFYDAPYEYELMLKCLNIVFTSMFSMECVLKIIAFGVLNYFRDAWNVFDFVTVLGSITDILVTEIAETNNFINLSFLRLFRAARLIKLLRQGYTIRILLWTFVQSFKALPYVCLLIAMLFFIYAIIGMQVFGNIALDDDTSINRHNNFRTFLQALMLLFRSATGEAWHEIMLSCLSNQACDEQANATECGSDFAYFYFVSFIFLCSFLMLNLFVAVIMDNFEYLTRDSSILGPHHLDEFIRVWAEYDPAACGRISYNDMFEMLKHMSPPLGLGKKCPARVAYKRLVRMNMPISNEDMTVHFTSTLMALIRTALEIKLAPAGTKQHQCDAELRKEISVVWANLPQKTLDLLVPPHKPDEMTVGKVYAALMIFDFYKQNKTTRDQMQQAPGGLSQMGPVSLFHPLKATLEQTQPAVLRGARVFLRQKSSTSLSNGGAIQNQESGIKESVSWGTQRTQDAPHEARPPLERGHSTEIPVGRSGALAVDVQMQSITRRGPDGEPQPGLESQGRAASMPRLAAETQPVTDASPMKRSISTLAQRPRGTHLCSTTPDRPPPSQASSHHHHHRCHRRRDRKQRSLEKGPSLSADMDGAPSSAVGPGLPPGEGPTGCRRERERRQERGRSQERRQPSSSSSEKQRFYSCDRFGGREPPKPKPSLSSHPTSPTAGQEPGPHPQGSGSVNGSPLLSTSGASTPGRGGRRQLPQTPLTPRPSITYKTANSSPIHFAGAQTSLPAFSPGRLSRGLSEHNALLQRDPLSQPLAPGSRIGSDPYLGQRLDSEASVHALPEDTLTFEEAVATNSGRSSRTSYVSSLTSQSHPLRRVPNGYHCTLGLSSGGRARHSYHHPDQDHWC
human Cav2.2, sequence (P54289 25-946 partner limits assumed): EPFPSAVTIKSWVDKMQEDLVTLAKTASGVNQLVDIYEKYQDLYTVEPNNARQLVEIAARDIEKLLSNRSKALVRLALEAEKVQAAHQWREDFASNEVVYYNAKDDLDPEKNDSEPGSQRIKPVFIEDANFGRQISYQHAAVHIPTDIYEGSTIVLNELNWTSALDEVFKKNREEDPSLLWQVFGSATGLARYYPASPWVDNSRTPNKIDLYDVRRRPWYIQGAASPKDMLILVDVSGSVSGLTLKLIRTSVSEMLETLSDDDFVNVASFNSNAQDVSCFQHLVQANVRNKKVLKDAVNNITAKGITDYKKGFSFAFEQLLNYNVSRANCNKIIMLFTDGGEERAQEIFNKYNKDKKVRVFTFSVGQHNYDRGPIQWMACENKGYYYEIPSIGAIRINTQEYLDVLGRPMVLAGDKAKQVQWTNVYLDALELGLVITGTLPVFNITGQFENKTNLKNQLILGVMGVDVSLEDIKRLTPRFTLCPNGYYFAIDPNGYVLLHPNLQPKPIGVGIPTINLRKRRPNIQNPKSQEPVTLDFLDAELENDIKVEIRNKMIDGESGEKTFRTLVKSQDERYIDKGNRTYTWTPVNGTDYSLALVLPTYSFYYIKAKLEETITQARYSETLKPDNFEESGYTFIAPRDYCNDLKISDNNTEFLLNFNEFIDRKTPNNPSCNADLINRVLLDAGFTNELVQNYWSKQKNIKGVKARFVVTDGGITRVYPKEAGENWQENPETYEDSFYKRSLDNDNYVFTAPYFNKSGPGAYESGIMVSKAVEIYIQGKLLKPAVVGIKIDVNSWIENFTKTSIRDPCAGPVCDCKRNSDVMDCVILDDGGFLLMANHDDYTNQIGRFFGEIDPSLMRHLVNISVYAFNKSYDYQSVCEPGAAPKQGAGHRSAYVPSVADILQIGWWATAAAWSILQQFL
human Cav2.2, sequence (P54289 947-1103 partner limits assumed): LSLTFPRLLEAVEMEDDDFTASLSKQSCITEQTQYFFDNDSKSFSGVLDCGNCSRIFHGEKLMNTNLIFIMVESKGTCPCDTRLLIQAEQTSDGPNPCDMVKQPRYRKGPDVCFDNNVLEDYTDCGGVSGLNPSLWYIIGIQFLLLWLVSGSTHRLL
human Cav2.2, sequence (P54284 whole entry partner): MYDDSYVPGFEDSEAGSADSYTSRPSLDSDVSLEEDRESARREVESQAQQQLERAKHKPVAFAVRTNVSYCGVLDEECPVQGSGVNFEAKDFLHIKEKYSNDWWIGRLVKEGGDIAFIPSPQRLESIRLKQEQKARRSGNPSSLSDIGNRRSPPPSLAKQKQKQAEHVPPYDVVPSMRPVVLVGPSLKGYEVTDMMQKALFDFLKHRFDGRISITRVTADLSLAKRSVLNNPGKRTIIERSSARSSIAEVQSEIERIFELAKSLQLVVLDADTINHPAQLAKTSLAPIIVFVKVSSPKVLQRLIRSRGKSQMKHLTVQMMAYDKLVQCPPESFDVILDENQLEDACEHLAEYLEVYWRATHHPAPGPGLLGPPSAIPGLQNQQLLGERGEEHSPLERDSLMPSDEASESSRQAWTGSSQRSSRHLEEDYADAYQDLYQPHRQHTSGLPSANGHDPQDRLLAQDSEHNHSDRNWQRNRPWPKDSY

SMILES	IC50 [µM]
CC(C)(C)OC(=O)N[C@H](C(=O)N[C@H]1CC[C@@H]2CN(S(=O)(=O)c3ccc(C(F)(F)F)cc3)C[C@@H]21)C(C)(C)C [Example 341, tert-butyl(S)-3,3-dimethyl-1-oxo-1-((3aR,4S,6aS)-2-(4-(trifluoromethyl)phenylsulfonyl)octahydrocyclopenta[c]pyrrol-4-ylamino)butan-2-ylcarbamate]	2.01
CC(C)(C)OC(=O)N[C@H](C(=O)N[C@@H]1CC[C@H]2CN(S(=O)(=O)c3ccc(C(F)(F)F)cc3)C[C@H]21)C(C)(C)C [Example 342, tert-butyl(S)-3,3-dimethyl-1-oxo-1-((3aS,4R,6aR)-2-(4-(trifluoromethyl)phenylsulfonyl)octahydrocyclopenta[c]pyrrol-4-ylamino)butan-2-ylcarbamate]	2.17
CCCC[C@@H](C(=O)N[C@H]1CC[C@@H]2CN(S(=O)(=O)c3ccc(C(F)(F)F)cc3)C[C@@H]21)N(C)C(=O)OC(C)(C)C [Example 343, tert-butyl methyl((S)-1-oxo-1-((3aR,4S,6aS)-2-(4-(trifluoromethyl)phenylsulfonyl)octahydrocyclopenta[c]pyrrol-4-ylamino)hexan-2-yl)carbamate]	1.01
CC(C)(C)C[C@H](NC(=O)OC(C)(C)C)C(=O)N[C@H]1CC[C@@H]2CN(S(=O)(=O)c3ccc(C(F)(F)F)cc3)C[C@@H]21 [Example 344, tert-butyl(S)-4,4-dimethyl-1-oxo-1-((3aR,4S,6aS)-2-(4-(trifluoromethyl)phenylsulfonyl)octahydrocyclopenta[c]pyrrol-4-ylamino)pentan-2-ylcarbamate]	0.99
CC(C)C[C@@H](C(=O)N[C@@H]1CC[C@H]2CN(C(=O)c3cccc(C(F)(F)F)c3)C[C@H]21)N1CCCC1 [Example 345, (2S)-4-methyl-2-pyrrolidin-1-yl-N-{(3aS,4R,6aR)-2-[3-(trifluoromethyl)benzoyl]octahydrocyclopenta[c]pyrrol-4-yl}pentanamide]	4.32
CN[C@@H](CC(C)(C)C)C(=O)N[C@@H]1CC[C@H]2CN(Cc3ccccc3)C[C@H]21 [Example 358, N^1-[(3aS,4R,6aR)-2-benzyloctahydrocyclopenta[c]pyrrol-4-yl]-N^2,4-dimethyl-L-leucinamide]	9
CN[C@@H](CC(C)C)C(=O)N[C@@H]1CC[C@@H]2CN(Cc3ccccc3)C[C@@H]21 [Example 364, N^1-[(3aR,4R,6aS)-2-benzyloctahydrocyclopenta[c]pyrrol-4-yl]-N^2-methyl-L-leucinamide]	8.12
CCN[C@@H](CC(C)C)C(=O)N[C@H]1CC[C@@H]2CN(Cc3cccc(C(F)(F)F)c3)C[C@@H]21 [Example 366, N^2-ethyl-N^1-{(3aR,4S,6aS)-2-[3-(trifluoromethyl)benzyl]octahydrocyclopenta[c]pyrrol-4-yl}-L-leucinamide]	5.28
CN[C@H](C(=O)N[C@@H]1CC[C@H]2CN(Cc3ccc(C(F)(F)F)cc3)C[C@H]21)C(C)C [Example 367, N^2-methyl-N^1-{(3aS,4R,6aR)-2-[4-(trifluoromethyl)benzyl]octahydrocyclopenta[c]pyrrol-4-yl}-L-valinamide]	7
O=C(N[C@@H]1CC[C@H]2CN(Cc3ccc(C(F)(F)F)cc3)C[C@H]21)[C@@H]1CCCCN1 [Example 370, (2S)—N-{(3aS,4R,6aR)-2-[4-(trifluoromethyl)benzyl]octahydrocyclopenta[c]pyrrol-4-yl}piperidine-2-carboxamide]	6.02
CN[C@H](C(=O)N[C@@H]1CC[C@H]2CN(Cc3cccc(C(F)(F)F)c3)C[C@H]21)C(C)C [Example 373, N^2-methyl-N^1-{(3aS,4R,6aR)-2-[3-(trifluoromethyl)benzyl]octahydrocyclopenta[c]pyrrol-4-yl}-L-valinamide]	7.58
CN[C@@H](CC(C)C)C(=O)N[C@@H]1CC[C@H]2CN(Cc3ccc(C(F)(F)F)c(F)c3)C[C@H]21 [Example 374, N^1-{(3aS,4R,6aR)-2-[3-fluoro-4-(trifluoromethyl)benzyl]octahydrocyclopenta[c]pyrrol-4-yl}-N^2-methyl-L-leucinamide]	5.36
